Source: ChEMBL document CHEMBL1833956, “Potent and novel 11β-HSD1 inhibitors identified from shape and docking based virtual screening” (Bioorg Med Chem Lett, 2011)

How the values were obtained:
Cytochrome P450 2D6 = Cytochrome P450 2D6 (Homo sapiens, UniProt P10635); experiment: Inhibition of CYP2D6 at 10 uM; type: ADME
[1] = Protein binding in plasma; type: ADME, cell-free; details: read-out: PPB
CYP3A4 = CYP3A4 (Homo sapiens, UniProt P08684); experiment: Inhibition of CYP3A4 in human liver microsomes using NADPH at 10 uM by LC-MS/MS analysis relative to control; type: ADME, Microsome
CYP3A4, sequence (P08684 whole entry): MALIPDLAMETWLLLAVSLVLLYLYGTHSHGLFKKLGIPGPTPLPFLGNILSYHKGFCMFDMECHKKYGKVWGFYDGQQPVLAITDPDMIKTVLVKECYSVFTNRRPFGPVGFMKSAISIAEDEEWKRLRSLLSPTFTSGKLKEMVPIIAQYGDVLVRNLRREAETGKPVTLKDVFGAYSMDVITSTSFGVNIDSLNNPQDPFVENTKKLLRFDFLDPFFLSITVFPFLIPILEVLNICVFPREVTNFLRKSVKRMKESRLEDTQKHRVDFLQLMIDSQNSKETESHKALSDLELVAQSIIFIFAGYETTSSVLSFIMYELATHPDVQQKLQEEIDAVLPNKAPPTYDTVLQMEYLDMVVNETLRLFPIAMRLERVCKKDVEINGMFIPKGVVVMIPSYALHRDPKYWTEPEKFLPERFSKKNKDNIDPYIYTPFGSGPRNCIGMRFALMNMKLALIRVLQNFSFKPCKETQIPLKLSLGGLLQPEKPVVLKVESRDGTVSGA

[2] = target: T1, 11-beta-hydroxysteroid dehydrogenase 1 (Homo sapiens, UniProt P28845); experiment: Inhibition of human 11beta HSD1 expressed in HEK293 cells assessed as assessed as inhibition of [1,2-(n)3H]cortisone to [3H]-cortisol after 60 mins by scintillation proximity assay; type: cell-based
Target sequence in this assay (P28845 whole entry): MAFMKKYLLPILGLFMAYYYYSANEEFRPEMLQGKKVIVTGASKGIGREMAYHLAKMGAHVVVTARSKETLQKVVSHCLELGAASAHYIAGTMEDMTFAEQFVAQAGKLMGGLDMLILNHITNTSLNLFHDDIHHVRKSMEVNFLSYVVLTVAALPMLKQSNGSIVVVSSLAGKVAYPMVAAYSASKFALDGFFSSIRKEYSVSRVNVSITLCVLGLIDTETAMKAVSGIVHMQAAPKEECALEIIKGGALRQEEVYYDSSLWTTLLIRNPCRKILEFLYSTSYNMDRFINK

[3] = target: T2, 11-beta-hydroxysteroid dehydrogenase type 2 (Homo sapiens, UniProt P80365); experiment: Inhibition of human 11beta HSD2
T2 sequence (P80365 whole entry): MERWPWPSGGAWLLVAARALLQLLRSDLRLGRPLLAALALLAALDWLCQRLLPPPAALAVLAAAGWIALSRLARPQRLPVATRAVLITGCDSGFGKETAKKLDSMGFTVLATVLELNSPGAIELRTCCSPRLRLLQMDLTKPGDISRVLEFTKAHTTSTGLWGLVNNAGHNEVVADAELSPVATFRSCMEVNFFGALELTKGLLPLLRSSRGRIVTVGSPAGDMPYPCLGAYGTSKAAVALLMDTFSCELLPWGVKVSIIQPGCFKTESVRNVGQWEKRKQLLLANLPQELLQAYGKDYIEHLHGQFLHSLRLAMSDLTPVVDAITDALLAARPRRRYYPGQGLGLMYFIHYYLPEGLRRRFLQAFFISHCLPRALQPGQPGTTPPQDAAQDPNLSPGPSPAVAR

Homo sapiens = species: Homo sapiens; experiment: Selectivity ratio of IC50 for human 11beta HSD2 to IC50 for human 11beta HSD1
[4] = target: T1, 11-beta-hydroxysteroid dehydrogenase 1; experiment: Inhibition of human 11beta HSD1 expressed in HEK293 cells assessed as assessed as inhibition of [1,2-(n)3H]cortisone to [3H]-cortisol at 100 uM after 60 mins by scintillation proximity assay
Target sequence in this assay (P28845 whole entry, looked up): as the sequence (P28845 whole entry) above

Cytochrome P450 2D6, sequence (P10635 whole entry): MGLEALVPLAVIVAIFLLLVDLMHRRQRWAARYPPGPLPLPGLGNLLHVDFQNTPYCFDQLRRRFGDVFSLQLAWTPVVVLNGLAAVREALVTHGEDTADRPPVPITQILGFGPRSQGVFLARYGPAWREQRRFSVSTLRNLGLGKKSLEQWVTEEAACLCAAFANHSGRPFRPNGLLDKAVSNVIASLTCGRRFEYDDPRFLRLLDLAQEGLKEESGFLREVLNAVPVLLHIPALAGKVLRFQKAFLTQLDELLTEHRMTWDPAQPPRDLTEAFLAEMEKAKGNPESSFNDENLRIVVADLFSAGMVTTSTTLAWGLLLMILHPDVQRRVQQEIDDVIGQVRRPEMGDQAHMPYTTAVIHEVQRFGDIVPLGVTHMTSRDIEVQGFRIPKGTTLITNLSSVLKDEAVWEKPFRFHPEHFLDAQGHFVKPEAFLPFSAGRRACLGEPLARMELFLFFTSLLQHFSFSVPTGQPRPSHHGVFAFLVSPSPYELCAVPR

inhibition (INH) (Cytochrome P450 2D6) | fraction unbound [1] | inhibition at 10 µM (CYP3A4) | IC50 [2] | IC50 [3] | Ratio IC50 (Homo sapiens) | inhibition [4] | SMILES
Not Active | ≤ 0.1 | 26% |  |  |  |  | O=S(=O)(c1ccc2ccccc2c1)N1CCCN(Cc2c(F)cccc2Cl)CC1
Not Active | ≤ 0.05 | 14% |  |  |  |  | O=S(=O)(c1ccc2ccccc2c1)N1CC=C(c2ccccc2)CC1
Not Active | ≤ 0.05 | 26% |  |  |  |  | N#C/C(=C\c1ccc2c(c1)CCO2)S(=O)(=O)c1ccc(Cl)cc1Cl
 |  |  | 28.4 nM |  |  |  | CCN(CC)C(=O)Cc1csc(NS(=O)(=O)c2cccc(Cl)c2C)n1
Active | ≤ 0.05 | 36% | 58.1 nM | 8900 nM | 200 |  | O=C(CSc1nnc(-c2ccccc2)c(-c2ccccc2)n1)N1CCc2ccccc21
Active | ≤ 0.1 | 82% | 102 nM |  |  |  | O=S(=O)(Nc1cccc(CCc2ccccn2)c1)c1cc(Cl)ccc1Cl
Not Active | ≤ 0.05 | 17% | 41.3 nM |  | 2420 | < 50% | CN(Cc1ccccc1)S(=O)(=O)c1ccc(Oc2cccc(Cl)c2C#N)cc1
Not Active | ≤ 0.05 | 73% |  |  |  |  | Fc1cccc(Cl)c1CSc1nnc(-c2ccco2)n1-c1ccc(OCc2ccccc2)cc1
Not Active | ≤ 0.1 | 13% |  |  |  |  | O=S(=O)(c1ccc2ccccc2c1)N1CCN(c2ncc(C(F)(F)F)cc2Cl)CC1
